# Assay results published in PubChem BioAssay (NCI).
#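 Test compounds were applied to cells in 96-well plates for 48 hours at 5 doses. TGI: concentration producing complete growth inhibition.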
# Tests used:
# Experiment in all cases: inhibition of tumour cell growth, NCI panel, 48 h
# MDA-MB-435 = test system: MDA-MB-435
# IGROV1 ovarian = test system: IGROV1 ovarian
# SK-OV-3 ovarian = test system: SK-OV-3 ovarian
# SNB-75 CNS = test system: SNB-75 CNS
# MCF7 breast = test system: MCF7 breast
# MDA-MB-231 breast = test system: MDA-MB-231 breast
# HS 578T breast = test system: HS 578T breast
# UO-31 renal = test system: UO-31 renal
# U251 CNS = test system: U251 CNS
# SN12C renal = test system: SN12C renal
# M14 melanoma = test system: M14 melanoma
# NCI-H226 lung = test system: NCI-H226 lung
# MDA-N = test system: MDA-N
# COLO 205 colon = test system: COLO 205 colon
# A498 renal = test system: A498 renal
# HCT-15 colon = test system: HCT-15 colon
# RXF 393 renal = test system: RXF 393 renal
# TK-10 renal = test system: TK-10 renal
# HT29 colon = test system: HT29 colon
# OVCAR-4 ovarian = test system: OVCAR-4 ovarian
# LOX IMVI melanoma = test system: LOX IMVI melanoma
# T-47D breast = test system: T-47D breast
# HCT-116 colon = test system: HCT-116 colon
# HOP-92 NSCLC = test system: HOP-92 NSCLC
# OVCAR-8 ovarian = test system: OVCAR-8 ovarian
# NCI-H522 lung = test system: NCI-H522 lung
# A549 NSCLC = test system: A549 NSCLC
# HL-60(TB) leukemia = test system: HL-60(TB) leukemia
# SW-620 colon = test system: SW-620 colon
# SF-539 CNS = test system: SF-539 CNS
# 786-0 renal = test system: 786-0 renal
# OVCAR-3 ovarian = test system: OVCAR-3 ovarian
# SF-268 CNS = test system: SF-268 CNS
# SR leukemia = test system: SR leukemia
# CCRF-CEM leukemia = test system: CCRF-CEM leukemia
# UACC-62 melanoma = test system: UACC-62 melanoma
# CAKI-1 renal = test system: CAKI-1 renal
# ACHN renal = test system: ACHN renal
# NCI-H23 lung = test system: NCI-H23 lung
# MOLT-4 leukemia = test system: MOLT-4 leukemia
# HCC-2998 colon = test system: HCC-2998 colon
# K-562 leukemia = test system: K-562 leukemia
# SF-295 CNS = test system: SF-295 CNS
# SNB-19 CNS = test system: SNB-19 CNS
# SK-MEL-2 melanoma = test system: SK-MEL-2 melanoma
# UACC-257 melanoma = test system: UACC-257 melanoma
# OVCAR-5 ovarian = test system: OVCAR-5 ovarian
# EKVX NSCLC = test system: EKVX NSCLC
# SK-MEL-28 melanoma = test system: SK-MEL-28 melanoma
# KM12 colon = test system: KM12 colon
# BT-549 breast = test system: BT-549 breast
# NCI-H460 lung = test system: NCI-H460 lung
# PC-3 prostate = test system: PC-3 prostate
# RPMI-8226 leukemia = test system: RPMI-8226 leukemia
# NCI/ADR-RES ovarian = test system: NCI/ADR-RES ovarian
# SK-MEL-5 melanoma = test system: SK-MEL-5 melanoma
# DU-145 prostate = test system: DU-145 prostate
# MALME-3M melanoma = test system: MALME-3M melanoma
# HOP-62 NSCLC = test system: HOP-62 NSCLC
compound,measurement,setting,value
COC(=O)CCC(=O)NC1=C(NCc2ccccc2)C(=O)c2ccccc2C1=O,TGI,MDA-MB-435,34.9 µM
same,TGI,IGROV1 ovarian,53.7 µM
same,TGI,SK-OV-3 ovarian,> 100 µM
same,TGI,SNB-75 CNS,> 100 µM
same,TGI,MCF7 breast,58.2 µM
same,TGI,MDA-MB-231 breast,85.7 µM
same,TGI,HS 578T breast,> 100 µM
same,TGI,UO-31 renal,> 100 µM
same,TGI,U251 CNS,94.8 µM
same,TGI,SN12C renal,88.2 µM
same,TGI,M14 melanoma,> 100 µM
same,TGI,NCI-H226 lung,> 100 µM
same,TGI,MDA-N,29.6 µM
same,TGI,COLO 205 colon,76.1 µM
same,TGI,A498 renal,> 100 µM
same,TGI,HCT-15 colon,51.5 µM
same,TGI,RXF 393 renal,> 100 µM
same,TGI,TK-10 renal,> 100 µM
same,TGI,HT29 colon,> 100 µM
same,TGI,OVCAR-4 ovarian,49.8 µM
same,TGI,LOX IMVI melanoma,77.2 µM
same,TGI,T-47D breast,> 100 µM
same,TGI,HCT-116 colon,> 100 µM
same,TGI,HOP-92 NSCLC,48.2 µM
same,TGI,OVCAR-8 ovarian,> 100 µM
same,TGI,NCI-H522 lung,50 µM
same,TGI,A549 NSCLC,> 100 µM
same,TGI,HL-60(TB) leukemia,> 100 µM
same,TGI,SW-620 colon,59.2 µM
same,TGI,SF-539 CNS,43.8 µM
same,TGI,786-0 renal,> 100 µM
same,TGI,OVCAR-3 ovarian,33.3 µM
same,TGI,SF-268 CNS,> 100 µM
same,TGI,SR leukemia,> 100 µM
same,TGI,CCRF-CEM leukemia,> 100 µM
same,TGI,UACC-62 melanoma,33.1 µM
same,TGI,CAKI-1 renal,72.8 µM
same,TGI,ACHN renal,> 100 µM
same,TGI,NCI-H23 lung,64.6 µM
same,TGI,MOLT-4 leukemia,> 100 µM
same,TGI,HCC-2998 colon,> 100 µM
same,TGI,K-562 leukemia,> 100 µM
same,TGI,SF-295 CNS,> 100 µM
same,TGI,SNB-19 CNS,> 100 µM
same,TGI,SK-MEL-2 melanoma,67.1 µM
same,TGI,UACC-257 melanoma,34.1 µM
same,TGI,OVCAR-5 ovarian,98.7 µM
same,TGI,EKVX NSCLC,> 100 µM
same,TGI,SK-MEL-28 melanoma,> 100 µM
same,TGI,KM12 colon,> 100 µM
same,TGI,BT-549 breast,> 100 µM
same,TGI,NCI-H460 lung,> 100 µM
same,TGI,PC-3 prostate,> 100 µM
same,TGI,RPMI-8226 leukemia,> 100 µM
same,TGI,NCI/ADR-RES ovarian,> 100 µM
same,TGI,SK-MEL-5 melanoma,24.9 µM
same,TGI,DU-145 prostate,> 100 µM
COC(=O)[C@@H]1[C@@H](c2cccc(Cl)c2)[C@H](C(=O)OC)C2(C[C@@]1(C)O)NCCS2 (some centres not stated),TGI,MDA-MB-435,> 100 µM
same,TGI,IGROV1 ovarian,> 100 µM
same,TGI,SK-OV-3 ovarian,> 100 µM
same,TGI,SNB-75 CNS,> 100 µM
same,TGI,MCF7 breast,> 100 µM
same,TGI,MDA-MB-231 breast,> 100 µM
same,TGI,HS 578T breast,> 100 µM
same,TGI,UO-31 renal,> 100 µM
same,TGI,U251 CNS,> 100 µM
same,TGI,MALME-3M melanoma,> 100 µM
same,TGI,SN12C renal,> 100 µM
same,TGI,M14 melanoma,> 100 µM
same,TGI,NCI-H226 lung,> 100 µM
same,TGI,MDA-N,> 100 µM
same,TGI,COLO 205 colon,> 100 µM
same,TGI,A498 renal,> 100 µM
same,TGI,HCT-15 colon,> 100 µM
same,TGI,RXF 393 renal,> 100 µM
same,TGI,TK-10 renal,> 100 µM
same,TGI,HT29 colon,> 100 µM
same,TGI,OVCAR-4 ovarian,> 100 µM
same,TGI,LOX IMVI melanoma,> 100 µM
same,TGI,T-47D breast,> 100 µM
same,TGI,HCT-116 colon,> 100 µM
same,TGI,HOP-92 NSCLC,> 100 µM
same,TGI,OVCAR-8 ovarian,> 100 µM
same,TGI,NCI-H522 lung,> 100 µM
same,TGI,HOP-62 NSCLC,> 100 µM
same,TGI,A549 NSCLC,> 100 µM
same,TGI,SW-620 colon,> 100 µM
same,TGI,SF-539 CNS,> 100 µM
same,TGI,786-0 renal,> 100 µM
same,TGI,OVCAR-3 ovarian,> 100 µM
same,TGI,SF-268 CNS,> 100 µM
same,TGI,CCRF-CEM leukemia,14.6 µM
same,TGI,UACC-62 melanoma,> 100 µM
same,TGI,CAKI-1 renal,> 100 µM
same,TGI,ACHN renal,> 100 µM
same,TGI,NCI-H23 lung,> 100 µM
same,TGI,MOLT-4 leukemia,42.1 µM
same,TGI,K-562 leukemia,> 100 µM
same,TGI,SF-295 CNS,> 100 µM
same,TGI,SNB-19 CNS,> 100 µM
same,TGI,SK-MEL-2 melanoma,94 µM
same,TGI,UACC-257 melanoma,> 100 µM
same,TGI,OVCAR-5 ovarian,> 100 µM
same,TGI,EKVX NSCLC,> 100 µM
same,TGI,SK-MEL-28 melanoma,> 100 µM
same,TGI,KM12 colon,> 100 µM
same,TGI,BT-549 breast,> 100 µM
same,TGI,NCI-H460 lung,> 100 µM
same,TGI,PC-3 prostate,> 100 µM
same,TGI,NCI/ADR-RES ovarian,> 100 µM
same,TGI,SK-MEL-5 melanoma,> 100 µM
same,TGI,DU-145 prostate,> 100 µM
